target: T1, IKKε (Homo sapiens, UniProt Q14164); test: In-vitro IKKε kinase assay ([γ33]ATP filter-plate); format: biochemical; details: text bins; read-out: IC50 for inhibition of the kinase activity of IKKε
T1 construct: His-tag; made in house; host or cells: Sf9 insect cells
T1 sequence (Q14164 1-716): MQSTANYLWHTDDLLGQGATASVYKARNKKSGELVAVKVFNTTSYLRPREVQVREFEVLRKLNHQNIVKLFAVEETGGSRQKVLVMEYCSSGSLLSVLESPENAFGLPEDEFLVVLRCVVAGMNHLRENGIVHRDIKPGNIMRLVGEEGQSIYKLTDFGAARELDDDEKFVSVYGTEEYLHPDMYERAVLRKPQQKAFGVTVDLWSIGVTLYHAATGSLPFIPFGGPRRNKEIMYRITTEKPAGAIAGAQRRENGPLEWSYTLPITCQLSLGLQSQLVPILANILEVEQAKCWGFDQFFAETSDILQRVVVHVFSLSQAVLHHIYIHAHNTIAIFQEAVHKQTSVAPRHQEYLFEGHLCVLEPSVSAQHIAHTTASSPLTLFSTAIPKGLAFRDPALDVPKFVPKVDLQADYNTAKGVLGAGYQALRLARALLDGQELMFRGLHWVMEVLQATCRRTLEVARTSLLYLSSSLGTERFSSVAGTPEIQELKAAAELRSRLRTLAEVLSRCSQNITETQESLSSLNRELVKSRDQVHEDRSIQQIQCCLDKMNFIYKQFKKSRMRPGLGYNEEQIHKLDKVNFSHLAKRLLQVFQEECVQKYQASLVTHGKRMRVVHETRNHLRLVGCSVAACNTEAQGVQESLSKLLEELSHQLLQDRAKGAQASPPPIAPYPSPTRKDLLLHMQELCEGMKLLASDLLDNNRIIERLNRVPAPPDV
Method: IKKε enzyme was produced as a His-tag fusion in Sf9 cells and used at a final concentration of […]. TBK1 enzyme was produced as a His-tag fusion in Sf9 cells and used at a final concentration of 0.1 μg/ml. Kinase reactions were carried out in reaction buffer using myelin basic protein (Millipore, Ballerica, Mass.) or casein (Sigma, St. Louis, Mo.) as substrate at an ATP concentration equal to twice the Km,ATP value for each enzyme, corresponding to 32 μM ATP for IKKε and 60 μM ATP for TBK1, in the presence of 0.3 μCi [γ^33]ATP (PerkinElmer, Waltham, Mass.). Final enzyme concentrations were 0.1 or 0.015 μg/ml (IKKε) and 0.1 or 0.02 μg/ml (TBK1), representing “normal” and “sensitized” assay conditions respectively. Test compounds (or DMSO solvent as a control) were added prior to initiation of the reactions. Reactions were terminated after 30-45 minutes by adding 3% phosphoric acid. Terminated reactions were transferred to P-81 cellulose phosphate filterplates (Whatman, Inc., Piscataway, N.J.) and washed with 1% phosphoric acid on a vacuum apparatus. After air drying, scintillant (PerkinElmer, Waltham, Mass.) was added and the plates were read on a PerkinElmer TopCount NXT instrument. Counts were normalized to DMSO controls after background subtraction.

Row | SMILES | IC50 [nM]
1 | COc1cc(NC(=O)NCCN(C)C)cc(Nc2nccc(-c3ccc(OC)c(C#N)c3)n2)c1 [compound 360, 1-(3-{[4-(3-Cyano-4-methoxyphenyl)pyrimidin-2-yl]amino}-5-methoxyphenyl)-3-[2-(dimethylamino)ethyl]urea] | 50 to 500
2 | N#Cc1cc(-c2ccnc(Nc3ccc(N4CCOCC4)cc3)n2)ccc1OC1CCN(C(=O)C(F)(F)F)CC1 [Example 247, 5-(2-{[4-(Morpholin-4-yl)phenyl]amino}pyrimidin-4-yl)-2-{[1-(trifluoroacetyl)piperidin-4-yl]oxy}benzonitrile] | 5 to 50
3 | C[C@H](O)C(=O)N1CCC(Oc2ccc(-c3ccnc(Nc4ccc(N5CCOCC5)cc4)n3)cc2C#N)C1 (stereo partly drawn) [Example 192, 2-({1-[(2S)-2-hydroxypropanoyl]pyrrolidin-3-yl}oxy)-5-(2-{[4-(morpholin-4-yl)phenyl]amino}pyrimidin-4-yl)benzonitrile] | 5 to 50
4 | COc1ccc(-c2ccnc(Nc3ccc(NC(=O)NCCCN)cc3)n2)cc1C#N [Example 10, 1-(3-Aminopropyl)-3-(4-{[4-(3-cyano-4-methoxyphenyl)pyrimidin-2-yl]amino}phenyl) urea] | 50 to 500
5 | N#Cc1cc(-c2ccnc(Nc3ccc(N4CCOCC4)cc3)n2)ccc1O[C@H]1CCN(C(=O)CO)C1 [compound 623, 2-{[(3S)-1-(Hydroxyacetyl)pyrrolidin-3-yl]oxy}-5-(2-{[4-(morpholin-4-yl)phenyl]amino}pyrimidin-4-yl)benzonitrile] | 5 to 50
6 | N#Cc1cc(-c2ccnc(Nc3ccc(N4CCOCC4)cc3)n2)ccc1NC(=O)NC1CCCCC1 [Example 61, 1-[2-cyano-4-(2-{[4-(morpholin-4-yl)phenyl]amino}pyrimidin-4-yl)phenyl]-3-cyclohexylurea] | 50 to 500
7 | CC(C)C(=O)Nc1ccc(-c2ccnc(Nc3ccc(CN4CCN(CCO)CC4)cc3)n2)cc1C#N [compound 426, N-(2-cyano-4-{2-[(4-{[4-(2-hydroxyethyl)piperazin-1-yl]methyl}phenyl)amino]pyrimidin-4-yl}phenyl)-2-methylpropanamide] | 5 to 50
8 | CC(C)C(=O)Nc1ccc(-c2ccnc(Nc3cccc(OCCCN4CCOCC4)c3)n2)cc1C#N [compound 429, N-{2-cyano-4-[2-({3-[3-(morpholin-4-yl)propoxy]phenyl}amino)pyrimidin-4-yl]phenyl}-2-methylpropanamide] | 5 to 50
9 | N#Cc1cccc(-c2ccnc(Nc3ccc4c(c3)OCCO4)n2)c1 [Example 232, 3-[2-(2,3-Dihydro-1,4-benzodioxin-6-ylamino)pyrimidin-4-yl]benzonitrile] | 50 to 500
10 | COc1ccc(-c2ccnc(Nc3ccc(S(N)(=O)=O)cc3)n2)cc1C#N [compound 323, 4-{[4-(3-Cyano-4-methoxyphenyl)pyrimidin-2-yl]amino} benzenesulfonamide] | 5 to 50
11 | COc1ccc(-c2ccnc(Nc3cc(CNCCO)c(OC)c(OC)c3)n2)cc1C#N [Example 173, 5-{2-[(3-{[(2-Hydroxyethyl)amino]methyl}-4,5-dimethoxyphenyl)amino]pyrimidin-4-yl}-2-methoxybenzonitrile] | 5 to 50
12 | N#Cc1cc(-c2ccnc(Nc3cccc(NC(=O)NCCO)c3)n2)ccc1OC1CCOCC1 [compound 622, 1-[3-({4-[3-Cyano-4-(tetrahydro-2H-pyran-4-yloxy)phenyl]pyrimidin-2-yl}amino)phenyl]-3-(2-hydroxyethyl)urea] | < 5
13 | CC(=O)N1CC(COc2ccc(-c3ccnc(Nc4ccc(N5CCOCC5)cc4)n3)cc2C#N)C1 [Example 125, 2-[(1-acetylazetidin-3-yl)methoxy]-5-(2-{[4-(morpholin-4-yl)phenyl]amino}pyrimidin-4-yl)benzonitrile] | 50 to 500
14 | N#Cc1cc(-c2ccnc(Nc3ccc(N4CCOCC4)cc3)n2)ccc1OC1CCN(C(=O)Cn2ccnc2)CC1 [Example 139, 2-{[1-(1H-imidazol-1-ylacetyl)piperidin-4-yl]oxy}-5-(2-{[4-(morpholin-4-yl)phenyl]amino}pyrimidin-4-yl)benzonitrile] | 5 to 50
15 | N#Cc1cc(-c2ccnc(Nc3ccc(-c4ccncc4)cc3)n2)ccc1OC1CCOCC1 [compound 610, 5-(2-{[4-(Pyridin-4-yl)phenyl]amino}pyrimidin-4-yl)-2-(tetrahydro-2H-pyran-4-yloxy)benzonitrile] | < 5
16 | N#Cc1cc(-c2ccnc(Nc3ccc(N4CCOCC4)cc3)n2)ccc1OCC1CCN(C(=O)C2C[C@H]2F)CC1 (stereo partly drawn) [Example 108, 2-[(1-{[(2R)-2-fluorocyclopropyl]carbonyl}piperidin-4-yl)methoxy]-5-(2-{[4-(morpholin-4-yl)phenyl]amino}pyrimidin-4-yl)benzonitrile] | 50 to 500
17 | COc1cc(NC(=O)NC2CCCC2)cc(Nc2nccc(-c3ccc(OC4CCN(C(C)=O)CC4)c(C#N)c3)n2)c1 [compound 333, 1-{3-[(4-{4-[(1-Acetylpiperidin-4-yl)oxy]-3-cyanophenyl}pyrimidin-2-yl)amino]-5-methoxyphenyl}-3-cyclopentylurea] | 5 to 50
18 | CC(=O)N1CC(Oc2ccc(-c3ccnc(Nc4ccc(N5CCOCC5)cc4)n3)cc2C#N)C1 [Example 53, 2-[(1-acetylazetidin-3-yl)oxy]-5-(2-{[4-(morpholin-4-yl)phenyl]amino}pyrimidin-4-yl)benzonitrile] | 50 to 500
19 | N#Cc1cc(-c2ccnc(Nc3ccc(N4CCOCC4)cc3)n2)ccc1OCCC1CCNCC1 [compound 472, 5-(2-{[4-(morpholin-4-yl)phenyl]amino}pyrimidin-4-yl)-2-[2-(piperidin-4-yl)ethoxy] benzonitrile] | 50 to 500
20 | CN1CCN(C2CCN(c3ccc(-c4ccnc(Nc5ccc(N6CCOCC6)cc5)n4)cc3C#N)CC2)CC1 [Example 213, 2-[4-(4-Methylpiperazin-1-yl)piperidin-1-yl]-5-(2-{[4-(morpholin-4-yl)phenyl]amino}pyrimidin-4-yl)benzonitrile] | 50 to 500
21 | COc1ccc(-c2ccnc(Nc3cccc(NC(=O)NCCCO)c3)n2)cc1C#N [compound 310, 1-(3-{[4-(3-Cyano-4-methoxyphenyl)pyrimidin-2-yl]amino}phenyl)-3-(3-hydroxypropyl)urea] | 5 to 50
22 | CC(C)C(=O)Nc1ccc(-c2ccnc(Nc3ccc(OCCN4CCOCC4)cc3)n2)cc1C#N [compound 431, N-{2-cyano-4-[2-({4-[2-(morpholin-4-yl)ethoxy]phenyl}amino)pyrimidin-4-yl]phenyl}-2-methylpropanamide] | 5 to 50
23 | N#Cc1cc(-c2ccnc(Nc3ccc(-c4cccnc4)cc3)n2)ccc1OC1CCOCC1 [compound 550, 5-(2-{[4-(Pyridin-3-yl)phenyl]amino}pyrimidin-4-yl)-2-(tetrahydro-2H-pyran-4-yloxy)benzonitrile] | < 5
24 | COc1ccc(-c2ccnc(Nc3cccc(NC(=O)NCCO)c3)n2)cc1C#N [compound 301, 1-(3-{[4-(3-Cyano-4-methoxyphenyl)pyrimidin-2-yl]amino}phenyl)-3-(2-hydroxyethyl)urea] | 5 to 50
25 | N#Cc1cc(-c2ccnc(Nc3cccc(-c4cccnc4)c3)n2)ccc1OC1CCOCC1 [compound 549, 5-(2-{[3-(Pyridin-3-yl)phenyl]amino}pyrimidin-4-yl)-2-(tetrahydro-2H-pyran-4-yloxy)benzonitrile] | < 5

Source: US20150352108A1, “AMINO-PYRIMIDINE COMPOUNDS AS INHIBITORS OF TBK1 AND/OR IKK EPSILON” (Alzheimer's Institute of America, priority 2009, published 2015)
